Test results: ChEMBL document CHEMBL1909046, “DrugMatrix in vitro pharmacology data”

Columns and labels:
[1] = DRUGMATRIX: Phosphodiesterase PDE4 enzyme inhibition (substrate: [3H]cAMP + cAMP); conditions: u-937; Not Active = under 50% inhibition at 10 µM
Mu-type opioid receptor = Mu-type opioid receptor (Homo sapiens, UniProt P35372); assay: DRUGMATRIX: Opiate mu (OP3, MOP) radioligand binding (ligand: [3H] Diprenorphine); assay type: cell membranes, CHO-K1, Membrane; conditions: cho-k1; Not Active = under 50% inhibition at 10 µM
Endothelin-1 receptor = target: T1, Endothelin-1 receptor (Homo sapiens, UniProt P25101); assay type: cell membranes, Membrane; conditions: cho-k1; note: in other assays of this panel Not Active means under 50% inhibition at 10 µM
T1 sequence (P25101 whole entry): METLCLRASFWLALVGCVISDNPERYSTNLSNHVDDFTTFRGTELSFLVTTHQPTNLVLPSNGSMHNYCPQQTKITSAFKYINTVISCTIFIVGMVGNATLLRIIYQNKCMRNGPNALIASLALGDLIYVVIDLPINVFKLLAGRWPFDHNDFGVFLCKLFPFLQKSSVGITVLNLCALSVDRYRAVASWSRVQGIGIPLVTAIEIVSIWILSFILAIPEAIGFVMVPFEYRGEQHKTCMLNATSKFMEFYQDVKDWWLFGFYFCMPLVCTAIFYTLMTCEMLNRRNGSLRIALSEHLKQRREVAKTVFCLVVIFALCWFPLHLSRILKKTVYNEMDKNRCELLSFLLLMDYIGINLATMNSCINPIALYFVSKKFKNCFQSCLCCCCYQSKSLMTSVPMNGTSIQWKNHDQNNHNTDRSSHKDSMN

Vasopressin V1a receptor = Vasopressin V1a receptor (Homo sapiens, UniProt P37288); assay type: cell membranes, Membrane; conditions: hek293; note: in other assays of this panel Not Active means under 50% inhibition at 10 µM
[2] = target: T2, C-X-C chemokine receptor type 2 (Homo sapiens, UniProt P25025); assay type: cell membranes, Membrane; conditions: cho-k1; note: in other assays of this panel Not Active means under 50% inhibition at 10 µM
T2 sequence (P25025 whole entry): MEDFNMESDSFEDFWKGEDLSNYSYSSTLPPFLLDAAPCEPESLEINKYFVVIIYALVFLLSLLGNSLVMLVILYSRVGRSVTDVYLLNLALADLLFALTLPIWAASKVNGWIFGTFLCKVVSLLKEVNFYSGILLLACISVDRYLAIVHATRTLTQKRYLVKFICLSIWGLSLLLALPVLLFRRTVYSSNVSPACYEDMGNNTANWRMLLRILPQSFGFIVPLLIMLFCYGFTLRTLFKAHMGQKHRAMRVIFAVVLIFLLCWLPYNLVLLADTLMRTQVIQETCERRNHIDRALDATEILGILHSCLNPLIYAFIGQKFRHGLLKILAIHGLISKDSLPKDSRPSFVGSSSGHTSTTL

[3] = target: T3, Angiotensin-converting enzyme (Oryctolagus cuniculus, UniProt P12822); assay: biochemical; assay type: tissue-based, Lung;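 note: enzymatic inhibition of angiotensin-converting enzyme measured with FAPGG as the substrate; in other assays of this panel Not Active means under 50% inhibition at 10 µM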
T3 sequence (P12822 whole entry): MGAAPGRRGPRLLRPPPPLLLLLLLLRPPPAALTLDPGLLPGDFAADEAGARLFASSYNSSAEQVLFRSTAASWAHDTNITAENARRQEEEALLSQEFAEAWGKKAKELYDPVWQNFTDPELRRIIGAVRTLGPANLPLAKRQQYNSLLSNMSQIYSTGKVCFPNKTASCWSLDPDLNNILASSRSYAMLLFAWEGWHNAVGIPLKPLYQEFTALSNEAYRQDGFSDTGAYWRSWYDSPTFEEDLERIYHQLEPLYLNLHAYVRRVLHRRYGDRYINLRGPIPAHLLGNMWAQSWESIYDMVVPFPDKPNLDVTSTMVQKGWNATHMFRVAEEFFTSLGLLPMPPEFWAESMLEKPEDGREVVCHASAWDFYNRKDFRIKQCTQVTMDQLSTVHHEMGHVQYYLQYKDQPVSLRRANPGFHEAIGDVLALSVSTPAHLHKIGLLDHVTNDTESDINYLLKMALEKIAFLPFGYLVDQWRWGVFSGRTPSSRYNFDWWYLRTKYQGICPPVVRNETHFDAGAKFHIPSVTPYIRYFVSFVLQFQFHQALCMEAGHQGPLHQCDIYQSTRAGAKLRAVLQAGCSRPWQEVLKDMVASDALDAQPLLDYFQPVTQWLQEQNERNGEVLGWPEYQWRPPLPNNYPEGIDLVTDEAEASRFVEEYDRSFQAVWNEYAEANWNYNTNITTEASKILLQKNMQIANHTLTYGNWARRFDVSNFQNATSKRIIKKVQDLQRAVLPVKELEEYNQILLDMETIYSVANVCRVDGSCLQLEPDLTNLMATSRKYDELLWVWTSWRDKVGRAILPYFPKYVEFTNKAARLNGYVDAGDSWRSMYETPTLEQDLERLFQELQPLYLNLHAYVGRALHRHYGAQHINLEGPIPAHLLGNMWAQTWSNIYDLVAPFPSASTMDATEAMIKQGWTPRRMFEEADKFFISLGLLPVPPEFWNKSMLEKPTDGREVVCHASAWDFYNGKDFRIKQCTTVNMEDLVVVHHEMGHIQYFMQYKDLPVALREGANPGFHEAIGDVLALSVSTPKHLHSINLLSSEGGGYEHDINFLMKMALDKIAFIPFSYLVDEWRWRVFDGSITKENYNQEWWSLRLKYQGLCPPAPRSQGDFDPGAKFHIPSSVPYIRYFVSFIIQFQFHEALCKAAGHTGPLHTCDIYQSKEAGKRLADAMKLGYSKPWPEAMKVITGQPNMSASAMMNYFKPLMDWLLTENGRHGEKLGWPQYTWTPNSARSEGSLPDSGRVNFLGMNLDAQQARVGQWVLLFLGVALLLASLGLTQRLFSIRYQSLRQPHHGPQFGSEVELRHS

[4] = target: T4, Cholecystokinin receptor type A (Homo sapiens, UniProt P32238); assay type: cell membranes, Membrane; conditions: 1321-n1; note: in other assays of this panel Not Active means under 50% inhibition at 10 µM
T4 sequence (P32238 whole entry): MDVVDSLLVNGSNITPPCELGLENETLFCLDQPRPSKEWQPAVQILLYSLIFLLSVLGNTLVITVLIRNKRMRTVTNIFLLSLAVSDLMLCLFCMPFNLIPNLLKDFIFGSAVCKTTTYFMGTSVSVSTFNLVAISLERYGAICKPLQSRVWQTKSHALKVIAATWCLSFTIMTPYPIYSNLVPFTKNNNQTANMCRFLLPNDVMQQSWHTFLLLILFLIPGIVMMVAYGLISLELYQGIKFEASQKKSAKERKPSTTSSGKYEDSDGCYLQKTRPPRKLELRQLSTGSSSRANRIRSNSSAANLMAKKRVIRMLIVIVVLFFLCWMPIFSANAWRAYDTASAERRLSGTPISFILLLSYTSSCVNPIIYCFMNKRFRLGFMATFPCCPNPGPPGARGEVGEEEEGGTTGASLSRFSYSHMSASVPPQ

Sequence of Mu-type opioid receptor (P35372 whole entry): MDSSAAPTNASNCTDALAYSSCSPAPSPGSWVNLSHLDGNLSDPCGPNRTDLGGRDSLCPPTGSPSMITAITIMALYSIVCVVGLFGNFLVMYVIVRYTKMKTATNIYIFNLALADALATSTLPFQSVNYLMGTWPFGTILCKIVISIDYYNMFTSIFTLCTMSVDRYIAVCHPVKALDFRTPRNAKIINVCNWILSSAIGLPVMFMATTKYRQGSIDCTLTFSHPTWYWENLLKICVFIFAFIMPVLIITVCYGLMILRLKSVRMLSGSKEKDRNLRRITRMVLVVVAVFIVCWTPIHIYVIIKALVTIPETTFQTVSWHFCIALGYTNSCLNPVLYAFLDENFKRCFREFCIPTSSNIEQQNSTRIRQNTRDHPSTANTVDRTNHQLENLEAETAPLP
Sequence of Vasopressin V1a receptor (P37288 whole entry): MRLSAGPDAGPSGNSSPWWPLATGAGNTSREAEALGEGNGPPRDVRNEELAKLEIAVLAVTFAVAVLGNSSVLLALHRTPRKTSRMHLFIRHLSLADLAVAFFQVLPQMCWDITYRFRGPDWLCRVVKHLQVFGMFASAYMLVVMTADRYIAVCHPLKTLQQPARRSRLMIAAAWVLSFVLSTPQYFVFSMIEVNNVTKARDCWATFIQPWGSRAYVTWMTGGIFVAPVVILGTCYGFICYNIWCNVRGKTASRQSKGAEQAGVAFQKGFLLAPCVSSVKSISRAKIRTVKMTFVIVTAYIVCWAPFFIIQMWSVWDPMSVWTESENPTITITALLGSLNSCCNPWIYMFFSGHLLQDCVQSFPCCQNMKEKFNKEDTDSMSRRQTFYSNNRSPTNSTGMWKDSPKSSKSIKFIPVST

CC(=O)CCCCn1c(=O)c2c(ncn2C)n(C)c1=O [PENTOXIFYLLINE]
Not Active: IC50 [1] | Ki [1] | IC50 (Mu-type opioid receptor) | IC50 (Endothelin-1 receptor) | IC50 (Vasopressin V1a receptor) | IC50 [2] | IC50 [3] | IC50 [4]

O=C1NC(=O)C(c2ccccc2)(c2ccccc2)N1 [PHENYTOIN]
Not Active: IC50 [1] | Ki [1] | IC50 (Mu-type opioid receptor) | IC50 (Endothelin-1 receptor) | IC50 (Vasopressin V1a receptor) | IC50 [2] | IC50 [3] | IC50 [4]

CNC(=O)Oc1ccc2c(c1)[C@]1(C)CCN(C)[C@@H]1N2C [PHYSOSTIGMINE]
Not Active: IC50 [1] | Ki [1] | IC50 (Mu-type opioid receptor) | IC50 (Endothelin-1 receptor) | IC50 (Vasopressin V1a receptor) | IC50 [2] | IC50 [3] | IC50 [4]

CN1C(C(=O)Nc2ccccn2)=C(O)c2ccccc2S1(=O)=O [PIROXICAM]
Not Active: IC50 [1] | Ki [1] | IC50 (Mu-type opioid receptor) | IC50 (Endothelin-1 receptor) | IC50 (Vasopressin V1a receptor) | IC50 [2] | IC50 [3] | IC50 [4]

CCC1(c2ccccc2)C(=O)NCNC1=O [PRIMIDONE]
Not Active: IC50 [1] | Ki [1] | IC50 (Mu-type opioid receptor) | IC50 (Endothelin-1 receptor) | IC50 (Vasopressin V1a receptor) | IC50 [2] | IC50 [3] | IC50 [4]

CCCc1cc(=O)[nH]c(=S)[nH]1 [PROPYLTHIOURACIL]
Not Active: IC50 [1] | Ki [1] | IC50 (Mu-type opioid receptor) | IC50 (Endothelin-1 receptor) | IC50 (Vasopressin V1a receptor) | IC50 [2] | IC50 [3] | IC50 [4]

COc1ccc(CN(CCN(C)C)c2ccccn2)cc1 [PYRILAMINE]
Not Active: IC50 [1] | Ki [1] | IC50 (Mu-type opioid receptor) | IC50 (Endothelin-1 receptor) | IC50 (Vasopressin V1a receptor) | IC50 [2] | IC50 [3] | IC50 [4]
